PMC9865212, “Compounds from the Petroleum Ether Extract of Wedelia chinensis with Cytotoxic, Anticholinesterase, Antioxidant, and Antimicrobial Activities” (Molecules, 2023)
In brackets after ≈: the same amount, converted by molar mass. Where two headings read alike, the source gives them in different places.

Tests used:
Sarcina lutea = experiment: microbe, parasite or virus in culture; assay type: cell-based, Sarcina lutea (QL-1660); conditions: for zone of inhibition at 400 µg/disc: Micrococcus luteus
[1] = target: T1, BChE enzyme from human blood (Homo sapiens, UniProt P06276); experiment: Anti-BChE assay, Ellman method; assay type: biochemical
T1 construct: BChE enzyme from human blood of a volunteer; from tissue; host or cells: human blood of a volunteer
T1 sequence (P06276 29-602): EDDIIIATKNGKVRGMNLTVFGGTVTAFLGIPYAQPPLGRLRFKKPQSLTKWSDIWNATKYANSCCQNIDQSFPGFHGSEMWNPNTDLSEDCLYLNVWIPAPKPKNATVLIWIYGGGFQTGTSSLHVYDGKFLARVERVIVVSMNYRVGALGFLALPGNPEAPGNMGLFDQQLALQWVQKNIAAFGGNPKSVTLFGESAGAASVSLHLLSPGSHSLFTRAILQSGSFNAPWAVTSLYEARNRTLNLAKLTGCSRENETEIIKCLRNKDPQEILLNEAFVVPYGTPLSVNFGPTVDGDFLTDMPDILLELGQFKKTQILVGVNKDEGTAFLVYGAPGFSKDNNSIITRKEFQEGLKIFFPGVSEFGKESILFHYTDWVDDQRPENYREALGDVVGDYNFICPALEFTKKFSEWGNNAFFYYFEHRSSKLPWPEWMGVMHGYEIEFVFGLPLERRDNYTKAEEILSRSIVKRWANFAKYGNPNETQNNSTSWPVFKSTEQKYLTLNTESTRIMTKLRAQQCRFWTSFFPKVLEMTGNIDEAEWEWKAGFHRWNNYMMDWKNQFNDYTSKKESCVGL
Description: (§1) We used the prepared AChE enzyme from mice brain and BChE enzyme from human blood of a volunteer that has been mentioned earlier. Various concentrations of the compound (500 μL) were mixed with the enzyme solution (500 μL) and incubated at 37 °C for 30 min. A reaction mixture was prepared that contained 0.5 mM acetylthiocholine/butyrylthiocholine and 1 mM DTNB in 50 mM sodium phosphate buffer (pH 8.0). To the reaction mixture (3.5 mL), the enzyme solution containing compound was added, incubated, and immediately the absorbance of the solution was determined at 412 nm. […] The percent inhibition was calculated by dividing the difference of sample absorbance from control with control absorbance × 100.

Bacillus Subtilis = experiment: microbe, parasite or virus in culture; assay type: cell-based, Bacillus subtilis (QL-40)
Pseudomonas aeruginosa = experiment: microbe, parasite or virus in culture; assay type: cell-based, Pseudomonas aeruginosa (ATCC-27853)
Salmonella typhi = experiment: microbe, parasite or virus in culture; assay type: cell-based, Salmonella typhi (ATCC-14028); conditions: for zone of inhibition at 400 µg/disc: Salmonella enterica
Shigella boydii = experiment: microbe, parasite or virus in culture; assay type: cell-based, Shigella boydii (AL-17313)
Fusarium species = experiment: microbe, parasite or virus in culture; assay type: cell-based
Aspergillus niger = assay type: cell-based, Aspergillus niger (ATCC-1204)
[2] = target: T2, AChE enzyme from mice brain (Mus musculus, UniProt P21836); experiment: biochemical
T2 construct: We used the prepared AChE enzyme from mice brain; from tissue; host or cells: mouse brain
T2 sequence (P21836 32-614): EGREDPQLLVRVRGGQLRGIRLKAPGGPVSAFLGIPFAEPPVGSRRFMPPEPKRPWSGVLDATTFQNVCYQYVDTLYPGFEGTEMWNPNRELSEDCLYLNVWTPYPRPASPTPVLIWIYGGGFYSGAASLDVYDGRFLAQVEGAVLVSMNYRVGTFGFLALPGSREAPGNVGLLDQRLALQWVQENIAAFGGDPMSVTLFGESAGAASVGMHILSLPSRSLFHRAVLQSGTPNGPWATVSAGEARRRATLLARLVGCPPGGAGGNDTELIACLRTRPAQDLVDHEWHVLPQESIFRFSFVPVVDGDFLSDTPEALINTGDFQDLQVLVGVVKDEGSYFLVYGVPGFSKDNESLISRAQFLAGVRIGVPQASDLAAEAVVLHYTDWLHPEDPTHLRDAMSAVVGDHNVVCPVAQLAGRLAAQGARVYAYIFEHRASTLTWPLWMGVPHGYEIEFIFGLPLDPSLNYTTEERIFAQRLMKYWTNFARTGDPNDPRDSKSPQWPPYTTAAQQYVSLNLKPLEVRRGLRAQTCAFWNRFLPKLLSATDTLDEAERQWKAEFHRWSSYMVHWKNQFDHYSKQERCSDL
Description: as §1

Shigella dysenteriae = experiment: microbe, parasite or virus in culture; assay type: cell-based, Shigella dysenteriae (AL-35587)
Aspergillus flavus = experiment: microbe, parasite or virus in culture; assay type: cell-based, Aspergillus flavus (ATCC-9807)
Shigella shiga = experiment: microbe, parasite or virus in culture; assay type: cell-based, Shigella shiga (ATCC-26107); conditions: for zone of inhibition at 400 µg/disc: Shigella
[3] = test system: brine shrimp nauplii (Artemia salina Lech); experiment: Brine shrimp lethality bioassay (cytotoxicity); conditions: brine shrimp lethality, 5–80 μg/mL
Shigella flexneriae = experiment: microbe, parasite or virus in culture; assay type: cell-based, Shigella flexneriae (AM-36282)
Shigella sonnei = experiment: microbe, parasite or virus in culture; assay type: cell-based, Shigella sonnei (AJ-8992)
Strep-β-haemolyticus = experiment: organism not typed; assay type: cell-based, Streptococcus-ß-haemolyticus (ATCC-10389)
Staphylococcus aureus = experiment: microbe, parasite or virus in culture; assay type: cell-based, Staphylococcus aureus (ATCC-259233)
Escherichia coli = experiment: microbe, parasite or virus in culture; assay type: cell-based, Escherichia coli (FPFC-1407)
Bacillus megaterium = experiment: microbe, parasite or virus in culture; assay type: cell-based, Bacillus megaterium (QL-38); conditions: for zone of inhibition at 400 µg/disc: Priestia megaterium
Klebsiella species = experiment: microbe, parasite or virus in culture; assay type: cell-based
Candida species = experiment: microbe, parasite or virus in culture; assay type: cell-based
[4] = Reducing power assay (antioxidant, Fe3+ to Fe2+); conditions: at a concentration of 40 µg/mL, absorbance at 700 nm
[5] = Brine shrimp lethality bioassay (cytotoxicity); conditions: Artemia salina (brine shrimp nauplii), in vivo

SMILES: CC[C@H](CC[C@@H](C)[C@H]1CC[C@H]2[C@@H]3CC=C4C[C@@H](O)CC[C@]4(C)[C@H]3CC[C@]12C)C(C)C [Compound 3, β-sitosterol]
- Zone of Inhibition (Sarcina lutea; 400 μg/disc): −
- IC50 [1]: 104 µM
- Zone of Inhibition (Bacillus Subtilis; 400 μg/disc): −
- Zone of Inhibition (Pseudomonas aeruginosa; 400 μg/disc): −
- Zone of Inhibition (Salmonella typhi; 400 μg/disc): −
- Zone of Inhibition (Shigella boydii; 400 μg/disc): −
- Zone of Inhibition (Fusarium species; 400μg/disc): −
- Zone of Inhibition (Aspergillus niger; 400μg/disc): −
- IC50 [2]: 107 µM
- Zone of Inhibition (Shigella dysenteriae; 400 μg/disc): −
- Zone of Inhibition (Aspergillus flavus; 400μg/disc): −
- Zone of Inhibition (Shigella shiga): −
- cytotoxic effects (in words) [3]: All the compounds except 3 showed significant cytotoxic effects
- Zone of Inhibition (Shigella flexneriae; 400 μg/disc): −
- Zone of Inhibition (Shigella sonnei; 400 μg/disc): −
- Zone of Inhibition (Strep-β-haemolyticus; 400 μg/disc): −
- Zone of Inhibition (Staphylococcus aureus; 400 μg/disc): −
- Zone of Inhibition (Escherichia coli; 400 μg/disc): −
- Zone of Inhibition (Bacillus megaterium; 400 μg/disc): −
- Zone of Inhibition (Klebsiella species; 400 μg/disc): −
- Zone of Inhibition (Candida species; 400μg/disc): −

SMILES: NC[C@H]1O[C@H](O[C@H]2[C@H](O)[C@@H](O[C@H]3O[C@H](CO)[C@@H](O)[C@H](N)[C@H]3O)[C@H](N)C[C@@H]2N)[C@H](O)[C@@H](O)[C@@H]1O [Std. Kan, kanamycin, reference compound]
- Zone of Inhibition (Sarcina lutea; 30 μg/disc): 29 mm
- Zone of Inhibition (Bacillus Subtilis; 30 μg/disc): 24 mm
- Zone of Inhibition (Pseudomonas aeruginosa; 30 μg/disc): 31 mm
- Zone of Inhibition (Salmonella typhi; 30 μg/disc): 28 mm
- Zone of Inhibition (Shigella boydii; 30 μg/disc): 31 mm
- Zone of Inhibition (Shigella dysenteriae; 30 μg/disc): 32 mm
- Zone of Inhibition (Shigella shiga): 31 mm
- Zone of Inhibition (Shigella flexneriae; 30 μg/disc): 27 mm
- Zone of Inhibition (Shigella sonnei; 30 μg/disc): 31 mm
- Zone of Inhibition (Strep-β-haemolyticus; 30 μg/disc): 27 mm
- Zone of Inhibition (Staphylococcus aureus; 30 μg/disc): 33 mm
- Zone of Inhibition (Escherichia coli; 30 μg/disc): 27 mm
- Zone of Inhibition (Bacillus megaterium; 30 μg/disc): 27 mm
- Zone of Inhibition (Klebsiella species; 30 μg/disc): 28 mm

SMILES: CC(C)C=CC[C@@H](C)[C@H]1CC[C@H]2[C@@H]3CC=C4CC(O)CC[C@]4(C)[C@H]3CC[C@]12C (some centres unmarked) [Compound 4, cholesta-5,23-dien-3-ol]
- zone of inhibition at 400 µg/disc (Sarcina lutea; 400 μg/disc): 13 mm
- IC50 [1]: 124 µM
- zone of inhibition at 400 µg/disc (Bacillus Subtilis; 400 μg/disc): 12 mm
- zone of inhibition at 400 µg/disc (Pseudomonas aeruginosa; 400 μg/disc): 12 mm
- zone of inhibition at 400 µg/disc (Salmonella typhi; 400 μg/disc): 10 mm
- zone of inhibition at 400 µg/disc (Shigella boydii; 400 μg/disc): 10 mm
- Zone of Inhibition (Fusarium species; 400μg/disc): −
- Zone of Inhibition (Aspergillus niger; 400μg/disc): −
- IC50 [2]: 117 µM
- zone of inhibition at 400 µg/disc (Shigella dysenteriae; 400 μg/disc): 13 mm
- absorbance (reducing power) [4]: 1.89
- Zone of Inhibition (Aspergillus flavus; 400μg/disc): −
- zone of inhibition at 400 µg/disc (Shigella shiga): 14 mm
- LC50 at 24 h [5]: 14.3 ± 0.87 µg/mL (≈ 37.1 µM)
- zone of inhibition at 400 µg/disc (Shigella flexneriae; 400 μg/disc): 11 mm
- zone of inhibition at 400 µg/disc (Shigella sonnei; 400 μg/disc): 12 mm
- zone of inhibition at 400 µg/disc (Strep-β-haemolyticus; 400 μg/disc): 12 mm
- zone of inhibition at 400 µg/disc (Staphylococcus aureus; 400 μg/disc): 9 mm
- zone of inhibition at 400 µg/disc (Escherichia coli; 400 μg/disc): 13 mm
- zone of inhibition at 400 µg/disc (Bacillus megaterium; 400 μg/disc): 12 mm
- zone of inhibition at 400 µg/disc (Klebsiella species; 400 μg/disc): 13 mm
- Zone of Inhibition (Candida species; 400μg/disc): −

SMILES: CC[C@]1(O)C[C@H]2CN(CCc3c([nH]c4ccccc34)[C@@](C(=O)OC)(c3cc4c(cc3OC)N(C=O)[C@H]3[C@@](O)(C(=O)OC)[C@H](OC(C)=O)[C@]5(CC)C=CCN6CC[C@]43[C@@H]65)C2)C1 [Vincristine, vincristine, reference compound]
- LC50 at 24 h [5]: 3.48 ± 0.36 µg/mL (≈ 4.22 µM)

SMILES: C[C@@]12CCC[C@@](C)(C(=O)O)[C@H]1CC[C@@]13C[C@@H](CC[C@H]12)[C@](C)(O)C3 [Compound 1, (-) kaur-16α-hydroxy-19-oic acid]
- zone of inhibition at 400 µg/disc (Sarcina lutea; 400 μg/disc): 17 mm
- IC50 ([1]; mean ± SD (n = 3), read-out: IC50, inhibition of butyrylcholinesterase (BChE) (converted)): 145 µM
- zone of inhibition at 400 µg/disc (Bacillus Subtilis; 400 μg/disc): 13 mm
- zone of inhibition at 400 µg/disc (Pseudomonas aeruginosa; 400 μg/disc): 15 mm
- zone of inhibition at 400 µg/disc (Salmonella typhi; 400 μg/disc): 13 mm
- zone of inhibition at 400 µg/disc (Shigella boydii; 400 μg/disc): 13 mm
- zone of inhibition at 400 µg/disc (Fusarium species; 400μg/disc): 12 mm
- Zone of Inhibition (Aspergillus niger; 400μg/disc): −
- IC50 ([2]; mean ± SD (n = 3), read-out: IC50, inhibition of acetylcholinesterase (AChE) (converted)): 152 µM
- zone of inhibition at 400 µg/disc (Shigella dysenteriae; 400 μg/disc): 19 mm
- absorbance (reducing power) [4]: 1.55
- zone of inhibition at 400 µg/disc (Aspergillus flavus; 400μg/disc): 14 mm
- zone of inhibition at 400 µg/disc (Shigella shiga): 14 mm
- LC50 at 24 h [5]: 12.4 ± 0.87 µg/mL (≈ 38.8 µM)
- zone of inhibition at 400 µg/disc (Shigella flexneriae; 400 μg/disc): 12 mm
- zone of inhibition at 400 µg/disc (Shigella sonnei; 400 μg/disc): 15 mm
- zone of inhibition at 400 µg/disc (Strep-β-haemolyticus; 400 μg/disc): 17 mm
- zone of inhibition at 400 µg/disc (Staphylococcus aureus; 400 μg/disc): 23 mm
- zone of inhibition at 400 µg/disc (Escherichia coli; 400 μg/disc): 14 mm
- zone of inhibition at 400 µg/disc (Bacillus megaterium; 400 μg/disc): 14 mm
- zone of inhibition at 400 µg/disc (Klebsiella species; 400 μg/disc): 15 mm
- Zone of Inhibition (Candida species; 400μg/disc): inactive and −

SMILES: O.Oc1cc(O)c2c(c1)O[C@H](c1ccc(O)c(O)c1)[C@@H](O)C2 [catechin, reference compound]
- absorbance (reducing power) [4]: 2.14

SMILES: C[C@@H]1[C@H](O)[C@@H](C)/C=C/C=C/CC/C=C/C=C/C=C/C=C/C(O[C@H]2O[C@H](C)[C@@H](O)[C@H](N)[C@@H]2O)CC2O[C@](O)(CC(O)C(O)CCC(O)CC(O)CC(O)CC(=O)O[C@H]1C)CC(O)C2C(=O)O (some centres unmarked) [Std. Nystatin, nystatin, reference compound]
- Zone of Inhibition (Fusarium species; 50 μg/disc): 26 mm
- Zone of Inhibition (Aspergillus niger; 50 μg/disc): 29 mm
- Zone of Inhibition (Aspergillus flavus; 50 μg/disc): 30 mm
- Zone of Inhibition (Candida species; 50 μg/disc): 28 mm

SMILES: C=C1C[C@@]23CCC4[C@](C)(C(=O)O)CCC[C@@]4(C)[C@@H]2CC[C@@H]1C3 (single isomer, unassigned; (-)) [Compound 2, (-) kaur-16-en-19-oic acid]
- zone of inhibition at 400 µg/disc (Sarcina lutea; 400 μg/disc): 16 mm
- IC50 [1]: 111 µM
- zone of inhibition at 400 µg/disc (Bacillus Subtilis; 400 μg/disc): 14 mm
- zone of inhibition at 400 µg/disc (Pseudomonas aeruginosa; 400 μg/disc): 16 mm
- zone of inhibition at 400 µg/disc (Salmonella typhi; 400 μg/disc): 15 mm
- zone of inhibition at 400 µg/disc (Shigella boydii; 400 μg/disc): 14 mm
- zone of inhibition at 400 µg/disc (Fusarium species; 400μg/disc): 11 mm
- Zone of Inhibition (Aspergillus niger; 400μg/disc): −
- IC50 [2]: 115 µM
- zone of inhibition at 400 µg/disc (Shigella dysenteriae; 400 μg/disc): 20 mm
- absorbance (reducing power) [4]: 1.26
- zone of inhibition at 400 µg/disc (Aspergillus flavus; 400μg/disc): 17 mm
- zone of inhibition at 400 µg/disc (Shigella shiga): 15 mm
- LC50 at 24 h [5]: 16.2 ± 1.11 µg/mL (≈ 53.5 µM)
- zone of inhibition at 400 µg/disc (Shigella flexneriae; 400 μg/disc): 13 mm
- zone of inhibition at 400 µg/disc (Shigella sonnei; 400 μg/disc): 13 mm
- zone of inhibition at 400 µg/disc (Strep-β-haemolyticus; 400 μg/disc): 18 mm
- zone of inhibition at 400 µg/disc (Staphylococcus aureus; 400 μg/disc): 13 mm
- zone of inhibition at 400 µg/disc (Escherichia coli; 400 μg/disc): 16 mm
- zone of inhibition at 400 µg/disc (Bacillus megaterium; 400 μg/disc): 12 mm
- zone of inhibition at 400 µg/disc (Klebsiella species; 400 μg/disc): 17 mm
- zone of inhibition at 400 µg/disc (Candida species; 400μg/disc): 13 mm
